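These data come from cells grown in 96-well plates and exposed to compound for 48 hours at five concentrations. Definition used: TGI = concentration required for complete inhibition of growth.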 Where a SMILES comes first, the peptide text is derived from it. The star is where a group is joined. Boc = CC(C)(C)OC(=O)*; tBu = CC(C)(C)*
Experiments:
Test in all cases: NCI tumour cell line growth inhibition, 48 h
A549 NSCLC = system: A549 NSCLC
CAKI-1 renal = system: CAKI-1 renal
COLO 205 colon = system: COLO 205 colon
HCC-2998 colon = system: HCC-2998 colon
HCT-116 colon = system: HCT-116 colon
HS 578T breast = system: HS 578T breast
K-562 leukemia = system: K-562 leukemia
MCF7 breast = system: MCF7 breast
NCI-H522 lung = system: NCI-H522 lung
OVCAR-5 ovarian = system: OVCAR-5 ovarian
RPMI-8226 leukemia = system: RPMI-8226 leukemia
SK-MEL-5 melanoma = system: SK-MEL-5 melanoma
SN12C renal = system: SN12C renal
SNB-75 CNS = system: SNB-75 CNS
SR leukemia = system: SR leukemia
T-47D breast = system: T-47D breast
UACC-257 melanoma = system: UACC-257 melanoma
HOP-92 NSCLC = system: HOP-92 NSCLC
A498 renal = system: A498 renal

Row | SMILES | TGI (A549 NSCLC) | TGI (CAKI-1 renal) | TGI (COLO 205 colon) | TGI (HCC-2998 colon) | TGI (HCT-116 colon) | TGI (HS 578T breast) | TGI (K-562 leukemia) | TGI (MCF7 breast) | TGI (NCI-H522 lung) | TGI (OVCAR-5 ovarian) | TGI (RPMI-8226 leukemia) | TGI (SK-MEL-5 melanoma) | TGI (SN12C renal) | TGI (SNB-75 CNS) | TGI (SR leukemia) | TGI (T-47D breast) | TGI (UACC-257 melanoma) | TGI (HOP-92 NSCLC) | TGI (A498 renal)
1 | CC1=C2CC(C)(C)CC(=O)C2(C)CCC1=O (configuration not stated) | > 100 µM | > 100 µM | > 100 µM | > 100 µM | > 100 µM | > 100 µM | > 100 µM | > 100 µM | > 100 µM | > 100 µM | 13.8 µM | > 100 µM | > 100 µM | > 100 µM | > 100 µM | > 100 µM | > 100 µM | – | –
2 | Nc1ncnc2c1N=C(c1ccccc1)CC(c1ccccc1)N2 (configuration not stated) | > 100 µM | > 100 µM | > 100 µM | > 100 µM | > 100 µM | > 100 µM | > 100 µM | > 100 µM | > 100 µM | > 100 µM | > 100 µM | – | > 100 µM | > 100 µM | > 100 µM | > 100 µM | > 100 µM | > 100 µM | –
3 | CC(=O)Nc1sccc1S(=O)(=O)c1ccc(Cl)cc1 | > 100 µM | > 100 µM | > 100 µM | > 100 µM | > 100 µM | > 100 µM | > 100 µM | > 100 µM | > 100 µM | > 100 µM | > 100 µM | > 100 µM | > 100 µM | > 100 µM | > 100 µM | > 100 µM | > 100 µM | > 100 µM | –
4 | O=C1Nc2ccccc2C1S(=O)(=O)c1ccccc1 (configuration not stated) | > 100 µM | > 100 µM | > 100 µM | > 100 µM | > 100 µM | > 100 µM | > 100 µM | – | > 100 µM | > 100 µM | > 100 µM | > 100 µM | > 100 µM | > 100 µM | > 100 µM | > 100 µM | > 100 µM | > 100 µM | > 100 µM
5 | CC(=O)O[C@H]1C[C@@H](OC(C)=O)[C@@](C)(O)[C@@H]2[C@@H](OC(C)=O)[C@@]3(O)[C@H](/C=C(/CCl)[C@H]4O[C@H]4[C@@H](OC(C)=O)[C@@]12C)OC(=O)[C@@H]3C | > 25 µM | > 25 µM | > 25 µM | > 25 µM | > 25 µM | > 25 µM | > 25 µM | – | > 25 µM | > 25 µM | > 25 µM | > 25 µM | > 25 µM | > 25 µM | – | > 25 µM | > 25 µM | > 25 µM | > 25 µM
6 | CC(=O)N1c2ccccc2[C@H]2CCc3c([nH]c4ccccc34)[C@H]21 | 67.3 µM | 64.4 µM | 27.6 µM | – | 11.4 µM | 57.7 µM | 30.9 µM | – | 51.3 µM | > 100 µM | 43.5 µM | 26.2 µM | 27.5 µM | 63 µM | – | 96.9 µM | > 100 µM | 33.5 µM | 36.2 µM
7 | Brc1ccc(-c2nc(-c3ccc(Br)cc3)n(-c3ccccc3)n2)cc1 | > 100 µM | > 100 µM | 57.5 µM | – | > 100 µM | > 100 µM | – | > 100 µM | > 100 µM | > 100 µM | – | > 100 µM | > 100 µM | > 100 µM | – | > 100 µM | > 100 µM | > 100 µM | > 100 µM
8 | CC(=O)c1sc2c(c1O)c(=O)n(-c1ccccc1)c(=S)n2-c1ccccc1 | > 100 µM | – | > 100 µM | > 100 µM | – | > 100 µM | > 100 µM | > 100 µM | > 100 µM | > 100 µM | > 100 µM | > 100 µM | > 100 µM | > 100 µM | – | > 100 µM | > 100 µM | > 100 µM | –
9 | O=C(O)c1ccccc1CC(Cc1ccccc1)C(=O)O (configuration not stated) | > 100 µM | > 100 µM | > 100 µM | > 100 µM | > 100 µM | > 100 µM | > 100 µM | – | > 100 µM | > 100 µM | > 100 µM | > 100 µM | > 100 µM | > 100 µM | > 100 µM | > 100 µM | > 100 µM | > 100 µM | > 100 µM
10 | Cc1cc(NS(=O)(=O)c2ccc(NC(=O)c3ccc4nc5ccccc5c(Nc5ccc(S(=O)(=O)Nc6cc(C)on6)cc5)c4c3)cc2)no1 | > 50 µM | > 50 µM | > 50 µM | > 50 µM | > 50 µM | > 50 µM | > 50 µM | > 50 µM | > 50 µM | > 50 µM | > 50 µM | > 50 µM | > 50 µM | > 50 µM | > 50 µM | > 50 µM | > 50 µM | > 50 µM | –
11 | CCOC(=O)[C@@H]1C[C@@H]1c1ccc(O)c(O)c1 | > 100 µM | > 100 µM | > 100 µM | 67.7 µM | 32.7 µM | > 100 µM | 32.9 µM | 35.2 µM | 26.5 µM | > 100 µM | 77 µM | 27.5 µM | > 100 µM | – | > 100 µM | 51.7 µM | > 100 µM | > 100 µM | –
12 | CCCCOCCOCCOC1=C(Cl)C(=O)c2c(O)ccc(O)c2C1=O | 4.14 µM | 0.388 µM | 0.756 µM | 4.79 µM | 1.41 µM | 5.86 µM | – | – | – | 5.33 µM | 1.32 µM | 1.53 µM | 2.96 µM | 1.25 µM | 0.117 µM | 2.52 µM | 2.6 µM | 0.437 µM | 4.95 µM
13 | NC(N)=N/N=C\c1c(-c2ccccc2)nc2sccn12 | 31.8 µM | 29.6 µM | 24.6 µM | 16.8 µM | 28.5 µM | 34.5 µM | > 100 µM | – | 24.6 µM | 30.6 µM | 49 µM | 29.2 µM | 28.8 µM | 24.8 µM | > 100 µM | 29.1 µM | 26.3 µM | 27.4 µM | 33.6 µM
14 | CC1=NNC(=O)[C@H]2[C@H]1CCC1[C@@H]2CC[C@]2(C)[C@@H](O)CC[C@@H]12 (some centres not stated) | > 100 µM | > 100 µM | > 100 µM | > 100 µM | > 100 µM | > 100 µM | > 100 µM | > 100 µM | > 100 µM | > 100 µM | > 100 µM | > 100 µM | > 100 µM | > 100 µM | – | > 100 µM | > 100 µM | > 100 µM | > 100 µM
15 | COC(=O)[C@]1(C)[C@H]2C[C@H]3O[C@H]4[C@H](O)[C@@H](O)OC(CC(O)C(C5=CC(=O)OC5)C(C5=CC(=O)OC5)C(O)CC56CCCCC7[C@@H](C)[C@H](C[C@H]8[C@](C)(C(=O)OC)[C@H](O)CC[C@]78C)O[C@H]([C@@H](O)[C@H](O)O5)[C@H]6O)(CCCCC([C@@H]3C)[C@]2(C)CC[C@@H]1O)[C@H]4O (some centres not stated) | 0.182 µM | 0.849 µM | 1.33 µM | 2.94 µM | 0.53 µM | – | 1.73 µM | 1.58 µM | 0.0558 µM | 3.14 µM | 0.539 µM | 0.129 µM | 0.159 µM | 1.04 µM | 0.253 µM | 6.62 µM | 1.01 µM | 3.92 µM | 0.737 µM
16 | COc1ccc(/C=N/n2c(Cc3ccccc3)n[nH]c2=O)cc1 | > 100 µM | > 100 µM | > 100 µM | > 100 µM | > 100 µM | 54.4 µM | > 100 µM | > 100 µM | – | > 100 µM | > 100 µM | – | > 100 µM | > 100 µM | – | > 100 µM | > 100 µM | – | > 100 µM
17 | CC(OC(C)(C)C)C(NC(=O)C(N)CCCCNC(=O)OC(C)(C)C)C(=O)NC(Cc1ccccc1)C(=O)O (configuration not stated) (H-Lys(Boc)-Thr(tBu)-Phe-OH; configuration not given here) | > 100 µM | > 100 µM | > 100 µM | > 100 µM | > 100 µM | > 100 µM | > 100 µM | > 100 µM | – | > 100 µM | > 100 µM | > 100 µM | > 100 µM | > 100 µM | > 100 µM | > 100 µM | > 100 µM | > 100 µM | –
18 | CO[C@]12C[C@@H](CNC(=O)c3cc(Br)c[nH]3)O[C@H]1NC(=O)N2 | > 100 µM | > 100 µM | > 100 µM | > 100 µM | > 100 µM | > 100 µM | > 100 µM | > 100 µM | > 100 µM | > 100 µM | > 100 µM | > 100 µM | > 100 µM | > 100 µM | – | > 100 µM | > 100 µM | > 100 µM | > 100 µM
19 | CCOP(=O)(/C=C/n1cnc2c(=O)n(C(C)=O)c(N)nc21)OCC | > 100 µM | > 100 µM | > 100 µM | – | > 100 µM | > 100 µM | > 100 µM | > 100 µM | > 100 µM | > 100 µM | > 100 µM | > 100 µM | > 100 µM | > 100 µM | – | > 100 µM | > 100 µM | – | > 100 µM
